In patent EP4643856A1, “CARBAZOLE DERIVATIVES USED AS NEUROPROTECTANTS AND IN THE TREATMENT OF DISORDERS WITH REDUCED NAD METABOLISM” (Centre National de la Recherche Scientifique, priority 2024, dated 2025):
Entries after “also recorded” stand apart in the source; their conditions may differ.

Key:
HeLa cells [1] = experiment: FK866-induced cytotoxicity, viability assay (prestoblue assay); format: cell-based; settings: 3.5 nM FK866 in the presence of 6 µM compound, 72 hours
Experimental: (§1) This clearly indicates an activation of the pathways leading to NADH production. • Figure 3 represents the effect of compounds I-a, I-f, I-m, I-n, I-q and the comparative example on the cytotoxicity mediated by NAMPT inhibitor FK866. HeLa cells were seeded in microplates and incubated with 3.5 nM FK866 without (black) or in the presence of 6 µM of I-a and different analogues (grey), as indicated, for 72 hours. A viability assay (prestoblue assay) was then conducted. […] Behavioral assessments were performed on 5-week-old male Sprague-Dawley rats before (basal values) and at days 4, 7, 11 and 14 after the beginning of the drug injections (Compound I-a 50 mg/kg, paclitaxel (PTX) 4 mg/kg, Compound I-a 50 mg/kg + PTX 4 mg/kg). Control animals (Vehicle) received vehicle injections. The results are presented by mean ± standard deviation (n = 6 per group). Tactile nociceptive thresholds were assessed using an electronic von Frey test (J. Ferrier, F. Marchand, D. Balayssac, Assessment of mechanical allodynia in rats using the electronic von frey test, BIO-Protoc., 6 (2016), 10.21769/BioProtoc.1933). Rats were placed individually in plastic compartments on an elevated wire floor and left for habituation for 15 min before each experiment. […] The maximum force applied (expressed in grams) to induce paw withdrawal was recorded automatically.
The compound FK866 is known to be a potent selective inhibitor of the NAMPT enzyme. Administration of FK866 in cultured cells results in depletion of intracellular NAD levels and subsequent cell death. The effect of compound I-a and other compounds of the series on FK866-induced cytotoxicity in HeLa cells was assayed.
HeLa cells were seeded in microplates and incubated with 3.5 nM FK866 without (black) or in the presence of 6 µM of I-a and different analogues (grey), as indicated, for 72 hours. A viability assay (prestoblue assay) was then conducted.

HeLa cells [2] = experiment: Kinetics of NADH autofluorescence (endogenous NADH production) by confocal microscopy; format: cell-based; settings: I-a (5 µM) or I-s (0.5 µM), 25-minute analysis, in comparison with controls
NAMPT = NAMPT (Homo sapiens, UniProt P43490); experiment: NAMPT activation in vitro, biochemical assay
Chain of NAMPT (P43490 whole entry, species assumed): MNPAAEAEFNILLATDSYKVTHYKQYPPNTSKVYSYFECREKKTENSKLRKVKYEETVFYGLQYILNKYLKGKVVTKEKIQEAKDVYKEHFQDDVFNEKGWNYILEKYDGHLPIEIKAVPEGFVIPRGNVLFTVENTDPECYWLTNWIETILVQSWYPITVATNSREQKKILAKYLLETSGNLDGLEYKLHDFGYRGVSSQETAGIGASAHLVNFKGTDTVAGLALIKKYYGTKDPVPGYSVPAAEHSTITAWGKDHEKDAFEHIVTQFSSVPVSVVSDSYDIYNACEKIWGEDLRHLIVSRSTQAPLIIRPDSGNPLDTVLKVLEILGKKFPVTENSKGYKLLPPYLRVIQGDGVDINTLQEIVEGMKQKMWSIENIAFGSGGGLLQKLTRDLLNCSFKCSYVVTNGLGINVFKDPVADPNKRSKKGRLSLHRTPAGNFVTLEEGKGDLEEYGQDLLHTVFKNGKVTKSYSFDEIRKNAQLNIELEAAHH

[3] = tested on: rat model of paclitaxel-induced neuropathy; experiment: Rat model of paclitaxel-induced neuropathy, electronic von Frey test; format: in vivo; settings: days 4, 7, 11 and 14
Experimental: as §1

Row | SMILES | effect on FK866-induced cell death (HeLa cells [1]) | other results
1 | COc1cccc(NCC(F)Cn2c3ccc(Cl)cc3c3c(C)c(-n4cccc4)cc(C)c32)c1 (centres unmarked) [Comparative example, N-[3-(6-chloro-1,4-dimethyl-3-pyrrol-1-yl-carbazol-9-yl)-2-fluoro-propyl]-3-methoxy-aniline, reference compound] | does not reduce FK866-induced cell death | –
2 | Cc1cc(-n2cccc2)c(C)c2c1[nH]c1ccc(Cl)cc12 [I-a, 6-chloro-1,4-dimethyl-3-pyrrol-1-yl-9H-carbazole] | significantly reduced cell death | NADH production (NADH autofluorescence) (HeLa cells [2]): dose-dependent increase in NADH production; NAMPT activation (NAMPT): activates NAMPT in vitro; tactile sensitivity (tactile nociceptive thresholds, von Frey) ([3]; Compound I-a 50 mg/kg + PTX 4 mg/kg, force in grams, n = 6 per group): prevents the hypersensitivity induced by PTX
3 | Cc1cc(-n2cccc2)c(C)c2c1[nH]c1ccc(Br)cc12 [I-f] | can relieve the cytotoxicity of the NAMPT inhibitor FK866; also recorded: reduced cell death | –
4 | Cc1cc(-n2cccc2)c(C)c2c1[nH]c1ccc(O)cc12 [I-m] | no detectable protective effect | –
5 | CCOC(=O)Oc1ccc2[nH]c3c(C)cc(-n4cccc4)c(C)c3c2c1 [I-n] | significantly reduced cell death | –
6 | CCc1cccc2c1[nH]c1c(C)cc(-n3cccc3)c(C)c12 [I-q] | significantly reduced cell death | –
7 | Cc1cc(-n2ccc(CO)c2)c(C)c2c1[nH]c1ccc(Cl)cc12 [I-s] | – | NADH production (NADH autofluorescence) (HeLa cells [2]): dose-dependent increase in NADH production
8 | CC(=O)O[C@H]1C(=O)[C@@]2(C)[C@H]([C@H](OC(=O)c3ccccc3)[C@]3(O)C[C@H](OC(=O)[C@H](O)[C@@H](NC(=O)c4ccccc4)c4ccccc4)C(C)=C1C3(C)C)[C@]1(OC(C)=O)CO[C@@H]1C[C@@H]2O [PTX, paclitaxel, reference compound] | – | tactile sensitivity (tactile nociceptive thresholds, von Frey) ([3]; PTX 4 mg/kg alone, compared with basal value at day 0): progressively induce a tactile hypersensitivity; also recorded: developed progressively tactile hypersensitivity
